Data: the supplement of paper PMC11919725

Tests used:
Jurkat [1] = assay: confluency relative to DMSO, 18 h (ratio); higher = more viable
How it was run: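 Compound was applied at 1 nM–10 µM (log10 steps) for 18 h at 37 °C, 5% CO2 to Jurkat cells or to primary CD4+/CD8+ T cells that were naive or had been activated 48 h with CD3/CD28 Dynabeads. Suspension (100 µl) was then plated in 96-well plates with IncuCyte Cytotox Dye and alamarBlue and imaged hourly over 3 h (×10, five images per well). Confluency was calculated from the IncuCyte phase-contrast images using the Basic Analyzer and normalised to the mean of the control wells.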

Jurkat [2] = assay: cytotoxicity relative to DMSO, 18 h (ratio); higher = less cell death (drugs called cytotoxic fall below 1)
How it was run: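 Jurkat or primary CD4+/CD8+ T cells (naive, or activated 48 h with CD3/CD28 Dynabeads) were treated 18 h with compound at 1 nM–10 µM (log10 steps) at 37 °C, 5% CO2. Then 100 µl of suspension went into 96-well plates with IncuCyte Cytotox Dye (250 nM final). Cytotoxicity came from IncuCyte fluorescence imaging (×10, five images per well, hourly over 3 h). Signals were corrected for confluency, then normalised to mean DMSO controls.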

Jurkat [3] = assay: metabolic activity relative to DMSO, 18 h (ratio); higher = more viable
How it was run: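 Jurkat cells and primary CD4+/CD8+ T cells, naive or activated for 48 h on CD3/CD28 Dynabeads, were incubated for 18 h with compound at 1 nM–10 µM. Fluorescence was read 3.5 h after alamarBlue addition (10% v/v final) at excitation 544 nm and emission 584 nm. Metabolic activity is normalised to the mean of vehicle controls.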

Row | Structure (SMILES) | confluency (Jurkat [1]; 1 nM) | confluency (Jurkat [1]; 10 nM) | confluency (Jurkat [1]; 100 nM) | confluency (Jurkat [1]; 1000 nM) | confluency (Jurkat [1]; 10000 nM) | cytotoxicity (Jurkat [2]; 1 nM) | cytotoxicity (Jurkat [2]; 10 nM) | cytotoxicity (Jurkat [2]; 100 nM) | cytotoxicity (Jurkat [2]; 1000 nM) | cytotoxicity (Jurkat [2]; 10000 nM) | metabolic activity (Jurkat [3]; 1 nM) | metabolic activity (Jurkat [3]; 10 nM) | metabolic activity (Jurkat [3]; 100 nM) | metabolic activity (Jurkat [3]; 1000 nM) | metabolic activity (Jurkat [3]; 10000 nM)
1 | CC(C)(C)c1cnc(CSc2cnc(NC(=O)C3CCNCC3)s2)o1 [SNS-032] | 1.13 | 1.09 | 1.08 | 1.13 | 1.17 | 1.06 | 1.06 | 1.06 | 0.66 | 0.657 | 0.778 | 0.953 | 0.979 | 0.192 | 0.167
2 | O=C(Nc1cccc(Cl)c1)Nc1ncc(CCNc2ncnc3ccsc23)s1 [SNS-314] | 0.951 | 0.963 | 0.974 | 0.907 | 0.78 | 0.951 | 0.912 | 0.92 | 0.832 | 0.733 | 0.955 | 0.945 | 0.979 | 0.909 | 0.797
3 | Cc1nc(-c2cccnc2)sc1C(=O)Nc1ccccc1-c1cn2c(CN3CCOCC3)csc2n1 [SRT2104] | 1.06 | 1.02 | 1.05 | 1.04 | 0.971 | 1.13 | 1.06 | 1.13 | 1.11 | 1.05 | 1.03 | 1.01 | 1.03 | 1.03 | 0.982
4 | CCC(CO)Nc1nc(NCc2ccccc2)c2ncn(C(C)C)c2n1 (stereo not given) [Seliciclib] | 1.03 | 0.968 | 0.924 | 0.977 | 0.943 | 1.02 | 0.922 | 0.883 | 0.948 | 0.957 | 0.994 | 0.987 | 0.945 | 0.962 | 1.03
5 | NC(=O)C1CCCc2c1[nH]c1ccc(Cl)cc21 (stereo not given) [Selisistat] | 0.962 | 0.984 | 0.973 | 0.992 | 0.992 | 0.974 | 0.979 | 0.932 | 1.09 | 0.974 | 1.06 | 1.02 | 0.995 | 1.09 | 1.05
6 | Cn1cnc2c(F)c(Nc3ccc(Br)cc3Cl)c(C(=O)NOCCO)cc21 [Selumetinib] | 0.985 | 0.965 | 0.988 | 0.983 | 0.974 | 1.01 | 0.984 | 1.06 | 1.02 | 0.959 | 1.05 | 1.04 | 1.03 | 1.03 | 1.07
7 | c1ccc2c(CCNc3ccc(Nc4ccncc4)cc3)c[nH]c2c1 [Serdemetan] | 1.02 | 1.02 | 1.06 | 1.04 | 0.841 | 1.08 | 1.1 | 1.21 | 1.06 | 0.829 | 1.04 | 0.963 | 0.905 | 0.863 | 0.816
8 | CNC1CC2OC(C)(C1OC)n1c3ccccc3c3c4c(c5c6ccccc6n2c5c31)C(=O)NC4 (stereo not given) [Staurosporine] | 0.829 | 0.908 | 0.897 | 0.964 | 0.876 | 0.826 | 0.955 | 0.959 | 1.04 | 0.913 | 0.916 | 1.06 | 0.979 | 1.02 | 0.995
9 | CCN(CC)CCNC(=O)c1c(C)[nH]c(C=C2C(=O)Nc3ccc(F)cc32)c1C [Sunitinib] | 0.994 | 0.89 | 0.969 | 0.836 | 0.635 | 0.992 | 0.874 | 1.01 | 0.752 | 0.546 | 1.07 | 0.92 | 0.991 | 0.874 | 0.795
10 | Cn1cc(-c2nc(NC3CCCCC3N)c(F)c3c2C(=O)NC3)cn1 (stereo not given) [TAK-659] | 0.984 | 1.04 | 0.979 | 0.946 | 0.896 | 0.994 | 1.11 | 0.902 | 0.949 | 0.883 | 1.07 | 1.12 | 0.932 | 0.867 | 0.955
11 | CC(C)(CNC(=O)c1cccc(-c2noc(C(F)(F)F)n2)c1)c1coc(-c2ccccc2)n1 [TMP195] | 1.02 | 0.934 | 1.08 | 1.04 | 1.02 | 0.995 | 0.915 | 1.12 | 1.06 | 1.06 | 1.02 | 0.877 | 0.921 | 0.94 | 1.02
12 | O=C(NCC1(c2nc(-c3ccccc3)cs2)CCOCC1)c1cccc(-c2noc(C(F)(F)F)n2)c1 [TMP269] | 0.997 | 1.08 | 0.985 | 0.978 | 0.947 | 0.968 | 1.06 | 0.951 | 0.93 | 0.891 | 0.923 | 0.987 | 1.04 | 1.06 | 1.03
13 | CC(=O)Nc1ccc(C(=O)Nc2ccccc2N)cc1 [Tacedinaline] | 0.975 | 1.05 | 1.01 | 0.986 | 0.994 | 0.902 | 0.979 | 0.958 | 0.905 | 0.942 | 0.978 | 0.926 | 0.943 | 0.899 | 0.757
14 | Cn1ncnc1C1c2n[nH]c(=O)c3cc(F)cc(c23)NC1c1ccc(F)cc1 (stereo not given) [Talazoparib] | 0.992 | 1 | 0.967 | 0.939 | 0.897 | 0.986 | 1.01 | 0.96 | 0.97 | 0.848 | 1.02 | 0.958 | 1.05 | 1.07 | 1.03
15 | C=CCNC1=C2CC(C)CC(OC)C(O)C(C)C=C(C)C(OC(N)=O)C(OC)C=CC=C(C)C(=O)NC(=CC1=O)C2=O (stereo not given) [Tanespimycin] | 0.985 | 0.872 | 0.982 | 0.7 | 0.734 | 0.913 | 0.813 | 0.913 | 0.585 | 0.628 | 0.935 | 0.939 | 0.999 | 0.835 | 0.795
16 | COc1cccc2c1c(O)c(C(=O)N(C)c1ccc(C(F)(F)F)cc1)c(=O)n2C [Tasquinimod] | 0.994 | 0.999 | 0.975 | 1.02 | 1 | 1 | 0.998 | 0.97 | 1.2 | 1.15 | 1.06 | 0.914 | 0.979 | 1.17 | 1.12
17 | CCN(c1cc(-c2ccc(CN3CCOCC3)cc2)cc(C(=O)NCc2c(C)cc(C)[nH]c2=O)c1C)C1CCOCC1 [Tazemetostat] | 0.999 | 0.961 | 0.898 | 0.926 | 0.97 | 0.997 | 0.928 | 0.843 | 0.912 | 1.05 | 0.926 | 0.932 | 0.939 | 1.12 | 1.24
18 | COC1CC2CCC(C)C(O)(O2)C(=O)C(=O)N2CCCCC2C(=O)OC(C(C)CC2CCC(OC(=O)C(C)(CO)CO)C(OC)C2)CC(=O)C(C)C=C(C)C(O)C(OC)C(=O)C(C)CC(C)C=CC=CC=C1C (stereo not given) [Temsirolimus] | 0.971 | 0.876 | 0.899 | 1.02 | 1.05 | 0.937 | 0.781 | 0.787 | 0.958 | 0.925 | 0.977 | 0.927 | 0.903 | 0.93 | 0.762
19 | O=C1CCC(N2C(=O)c3ccccc3C2=O)C(=O)N1 (stereo not given) [Thalidomide] | 0.954 | 0.93 | 1 | 0.99 | 0.975 | 0.981 | 1 | 1.1 | 0.991 | 0.855 | 1.17 | 1.26 | 1.27 | 1.13 | 0.925
20 | CC1CCN(C(=O)CC#N)CC1N(C)c1ncnc2[nH]ccc12 (stereo not given) [Tofacitinib] | 0.957 | 0.941 | 0.983 | 0.961 | 0.844 | 1.01 | 1.06 | 0.922 | 1.02 | 0.851 | 1.23 | 1.27 | 1.02 | 0.928 | 0.908
21 | CC(=O)Nc1cccc(-n2c(=O)n(C3CC3)c(=O)c3c(Nc4ccc(I)cc4F)n(C)c(=O)c(C)c32)c1 [Trametinib] | 1.01 | 1.03 | 1.05 | 1.03 | 1 | 1.14 | 1.12 | 1.26 | 1.12 | 1.02 | 1.12 | 1.08 | 1.15 | 1.1 | 1.02
22 | NC1CC1c1ccccc1 (stereo not given) [Tranylcypromine] | 0.972 | 0.963 | 0.998 | 1.02 | 1 | 0.98 | 0.941 | 1.15 | 1.08 | 0.956 | 1.02 | 0.916 | 1.14 | 1.08 | 0.962
23 | CC(C=CC(=O)NO)=CC(C)C(=O)c1ccc(N(C)C)cc1 (stereo not given) [Trichostatin-A] | 0.999 | 1.03 | 1.03 | 0.99 | 0.96 | 1.27 | 1.25 | 1.22 | 1.06 | 0.98 | 1.21 | 1.17 | 1.17 | 0.97 | 0.904
24 | CN1CCc2c(c3ccccc3n2Cc2ccc(C(=O)NO)cc2)C1 [Tubastatin A] | 0.97 | 0.971 | 0.987 | 0.932 | 0.841 | 1.04 | 1.02 | 1.05 | 0.953 | 0.893 | 1.23 | 1.23 | 1.24 | 1.15 | 1.19
25 | CC(C)Nc1cc(-c2c[nH]c(C(=O)NC(CO)c3cccc(Cl)c3)c2)c(Cl)cn1 (stereo not given) [Ulixertinib] | 1.02 | 1.06 | 0.999 | 1.11 | 0.826 | 0.973 | 1.01 | 0.93 | 0.998 | 0.777 | 1.05 | 1.02 | 0.828 | 0.866 | 0.878
26 | Cc1ncsc1-c1ccc(CNC(=O)C2CC(O)CN2C(=O)C(NC(=O)C2(C#N)CC2)C(C)(C)C)cc1 (stereo not given) [VH298] | 1.01 | 0.995 | 0.998 | 0.962 | 0.901 | 1 | 1.05 | 1.12 | 1.13 | 0.942 | 1.04 | 1.08 | 1.13 | 1.14 | 0.896
27 | Cc1ncsc1-c1ccc(CNC(=O)C2CC(O)CN2C(=O)C(N)C(C)(C)C)cc1 (stereo not given) [VHL ligand 1] | 1.01 | 1.01 | 1.03 | 1.02 | 1.02 | 1.01 | 0.955 | 0.949 | 0.966 | 0.948 | 1.06 | 1.01 | 1.06 | 0.989 | 1.05
28 | CC1(c2nc3c(C(N)=O)cccc3[nH]2)CCCN1 (stereo not given) [Veliparib] | 1.07 | 1.04 | 1.02 | 1.03 | 0.966 | 1.03 | 0.975 | 0.969 | 1.08 | 0.9 | 0.894 | 0.816 | 0.851 | 0.948 | 0.8
29 | CCC1(O)CC2CN(CCc3c([nH]c4ccccc34)C(C(=O)OC)(c3cc4c(cc3OC)N(C=O)C3C(O)(C(=O)OC)C(OC(C)=O)C5(CC)C=CCN6CCC43C65)C2)C1 (stereo not given) [Vincristine] | 0.98 | 0.875 | 0.82 | 0.781 | 0.762 | 0.824 | 0.698 | 0.662 | 0.611 | 0.585 | 0.536 | 0.402 | 0.366 | 0.394 | 0.412
30 | CCn1c(=O)c(-c2ccn[nH]2)cc2c(C)nc(N)nc21 [Voxtalisib] | 1 | 1.01 | 1.02 | 1.02 | 1.04 | 0.985 | 0.977 | 0.966 | 0.943 | 1.02 | 1.05 | 1.02 | 0.993 | 0.924 | 1
